# Patent US20170165253A1, “TREATMENT OF SEXUAL DYSFUNCTION AND FOR IMPROVED SEXUAL QUALITY OF LIFE” (ReJoy, priority 2015, published 2017)
# “And” between values parts separate entries of the source, which are not always exact repeats. Identical values can stand only once. Counter-ions that a name gives are not always drawn.
# What was measured:
# [1] = system: nipple-areola complex; assay: Phenylephrine FSFI orgasm domain study (Example 8); assay type: in vivo, human
# Description: Phenylephrine HCl 15%. A study was conducted to evaluate the effect of Phenylephrine HCl 15% on the FSFI orgasm domain. Three premenopausal subjects participated in the study. Subjects were not hypertensive, pregnant or breastfeeding.
# [2] = system: skin on the subjects forearm; assay: pH pilot study, pilomotor effect on forearm skin (Example 6); assay type: in vivo, human; settings: 10% solution
# Description: A pilot study was conducted to assess the optimal pH of topical phenylephrine solution required to elicit smooth muscle contraction on the skin. A series of 10% phenylephrine solutions were prepared in phosphate buffer solutions of varied pH. pH 4.6, 4.8, 5.0, 5.2, 5.4, 5.6, 5.8, 6.0, 6.2, 6.4, and 6.6 were used. Areas of skin on the subjects forearm were marked with a surgical pen. 50 microliter of each solution were applied to the marked area of skin and allowed to dry. After one hour the sites of application were visually inspected for the appearance of the pilomotor effect (i.e., “goose bumps”).
# [3] = system: nipple areola complex; assay: Restoration of nipple sensitivity post breast surgery, case study (Example 11); assay type: in vivo, human; settings: Likert scale (1-10), 45 minutes after 10% solution, single patients; Hydrochloride
# Description: A case study was conducted to assess the efficacy of a topical phenylephrine solution in increasing nipple sensitivity in patients that reported a loss in nipple sensitivity post breast surgery. Five subjects ages 36-65 participated in the study. Subjects were asked to rate their nipple sensitivity on a Likert scale (1-10) before surgery and currently (i.e., after surgery). Next, patients were asked to apply a 10% phenylephrine solution to each nipple areola complex. 45 minutes after application of the drug, patients were asked again to rate their nipple sensitivity on a Likert scale (1-10).
# [4] = Heart rate, blood pressure and adverse events in Example 12; assay type: in vivo, human; settings: for Delta HR t = 15: 15 minutes; for Delta HR t = 15 / Delta HR t = 30 / Delta HR t = 60: single patients, Hydrochloride; for Delta HR t = 30: 30 minutes; for Delta HR t = 60: 60 minutes
# Description: 20 healthy, pre-menopausal females were recruited to the study. Subjects were instructed to apply either 4 or 6 drops of an investigational drug to each nipple areola complex. Baseline blood-pressure, heart rate, nipple erection, nipple sensitivity, genital lubrication and arousal were measured and recorded. […]
# [5] = Blood pressure and heart rate after topical application on the nipple-areola complex (Example 2); assay type: in vivo, human
# Description: A study of the blood pressure and heart rate of five patients receiving topical application on the nipple-areola complex was made. The composition applied was 0.1 mL of a 10% phenylephrine solution for a total dosage of 10 mg phenylephrine HCl. Blood pressure and heart rate were measured at baseline (T=0), after 15 minutes and 30 minutes.
# [6] = system: nipple areola complex; assay: Iontophoresis patch erection of the nipple areola complex (Example 10); assay type: in vivo, human; settings: 1.3 mL 1% solution, iontophoresis patch 1 hour
# Description: In the following experiment, a commercially available iontophoresis patch was used to erect the nipple of a subject.
# 1. The nipple and areola of each breast were prepared by cleaning with a sterile alcohol pad.
# 2. Two Inotopatch 80 (Travanti Medical) patches were removed from packaging.
# 3. The positive electrode of the first patch was filled with 1.3 mL of a 1% phenylephrine hydrochloride.
# 4. The negative electrode of the first patch was filled with 1.3 mL of a saline solution.
# 5. The positive electrode (approximately 1.5 cm diameter) containing the drug was placed over the nipple areola complex of the right breast; the negative electrode was placed on the adjacent breast tissue outside the nipple areola complex of the right breast.
# 6. Steps 2-5 were repeated, however, both electrodes of the Inotopatch 80 were filled with 1.3 mL of saline. The patch was applied to left breast following the procedure of step 5.
# 7. The patches were left in place (adhesive) for 1 hour (dosage=[…], 80 mA/min).
# 8. After 1 hour the patches were removed.
# [7] = system: arrector pili muscle; settings: 1% w/v, iontophoresis; cited from earlier work
# [8] = system: nipple areole complex; assay: Pilot study in female sexual dysfunction, SSE by Sexual Activity Record (Example 4)
# [9] = Phenylephrine HCl 15%, single subjects, Hydrochloride
# [10] = 0.1 mL 10% solution on NAC, 15 minutes, single subjects, listed as PHCI, Hydrochloride
# [11] = 0.1 mL 10% solution on NAC, 30 minutes, single subjects, listed as PHCI, Hydrochloride
compound,measurement,setting,value
"CNC[C@H](O)c1cccc(O)c1 [Phenylephrine HCl, Phenylephrine Hydrochloride]",adverse events,[1]; 15%,No adverse events were reported
same,subjects with increased sensitivity and nipple erection,"[1]; 15%, subjects without response to 10%",3 of 5
same,"FSFI Scale How Difficult to Reach Orgasm, Intervention",[1]; [9],5 (2×) and 4
same,"FSFI Scale How Often Orgasm was Reached, Intervention",[1]; [9],5 and 4 (2×)
same,nipple sensitivity past application,[1]; report,≤ 12 h
same,Results after 1 hour (pilomotor effect),"[2]; pH 4.6, 50 microliter on forearm",None
same,Results after 1 hour (pilomotor effect),[2]; pH 4.8,Slight
same,Results after 1 hour (pilomotor effect),[2]; pH 5.0,Strong
same,Results after 1 hour (pilomotor effect),[2]; pH 5.2,Strong
same,Results after 1 hour (pilomotor effect),[2]; pH 5.4,Strong
same,Results after 1 hour (pilomotor effect),[2]; pH 5.6,Slight
same,Results after 1 hour (pilomotor effect),[2]; pH 5.8,Slight
same,Results after 1 hour (pilomotor effect),[2]; pH 6.0,None
same,Results after 1 hour (pilomotor effect),[2]; pH 6.2,None
same,Results after 1 hour (pilomotor effect),[2]; pH 6.4,None
same,Results after 1 hour (pilomotor effect),[2]; pH 6.6,None
same,"Nipple Sensitivity, Post-Surgery + Drug",[3],6 (2×) and 1 and 8 (2×)
same,Delta HR t = 15,"[4]; 10% Arm C, four drops (0.114 mL) per NAC",−3 (2×) and −10 and 3 (4×) and −7 and 0 (3×) and −1 (2×) and −2 (3×) and 4 and −9 and 6 and −5
same,Delta HR t = 30,"[4]; 10% Arm C, four drops",−2 and −12 and 13 and −7 (3×) and −3 (2×) and −1 (2×) and 5 and 7 (2×) and 3 (2×) and −4 (3×) and 0 (2×)
same,Delta HR t = 60,"[4]; 10% Arm C, four drops",−2 (2×) and −7 and −1 (3×) and −6 (2×) and −4 (4×) and 5 (2×) and −8 and 7 and 2 (2×) and −9 and −10
same,Delta HR t = 15,"[4]; 15% (Arm D), four drops",−9 (4×) and 1 (2×) and 0 and −4 (2×) and −6 and 4 and −15 and −8 and −5 and −3 (3×) and 6 and −1 and −2
same,Delta HR t = 30,"[4]; 15% (Arm D), four drops",−14 and 4 (2×) and 0 and −1 and −2 (3×) and 6 and −10 (2×) and −4 and −5 and 2 and −12 and 8 and 5 and 1 and 3 and −8
same,Delta HR t = 60,"[4]; 15% (Arm D), four drops",−16 and 4 and −6 (3×) and −2 (4×) and −4 and −7 and −9 and 1 and −3 (2×) and 0 (2×) and −10 and 2 and −11
same,Delta HR t = 15,"[4]; 20% (Arm B), four drops",−15 and 3 and −2 (2×) and −1 (2×) and −6 (2×) and 2 and −4 (2×) and −10 and 6 and 1 and −7 and −5 and 10 and −3 and 7 and 0
same,Delta HR t = 30,"[4]; 20% (Arm B), four drops",−20 and 4 and −6 and −14 and −3 (2×) and 7 (2×) and 1 (3×) and −1 (2×) and −7 and 10 (2×) and −9 (2×) and 3 and 6
same,Delta HR t = 60,"[4]; 20% (Arm B), four drops",−21 (2×) and 3 and 1 and −13 and 6 and −1 and 0 (2×) and −8 and −6 (2×) and 4 (2×) and −3 (2×) and −4 and 11 and 9 and −2
same,adverse event,[4]; 20% arm,one adverse event (nipple pain)
same,changes in blood pressure or heart rate,"[4]; all arms, 10-20%",no changes in blood pressure or heart rate
same,BP (T = 15),[5]; [10],112/76 and 122/77 and 117/72 and 120/72 and 99/67
same,HR (T = 15),[5]; [10],69 and 77 and 75 and 53 and 68
same,BP (T = 30),[5]; [11],117/75 and 122/78 and 128/77 and 116/68 and 97/63
same,HR (T = 30),[5]; [11],74 and 80 and 68 and 58 and 69
same,change in blood pressure or heart rate,"[5]; 0.1 mL 10% solution, five patients, 15 and 30 minutes",No significant change in blood pressure or heart rate
same,nipple sensitivity,[6]; one subject,increased sensitivity in the right nipple compared to the left nipple
same,nipple erection,[6]; right nipple vs saline left,visibly erect
same,piloerection on the forearm,[7],can activate the piloerection on the forearm
same,Number of SSE (1 week),"[8]; 0.1 mL 10% solution per NAC about 1 hour before sexual activity, single subjects, Hydrochloride",2 (2×) and 1 (2×) and 6 and 3 (3×) and 4
same,time nipples remained sensitive,[8]; 10% solution,3 to 4 h
same,time to increased nipple sensitivity after application,"[8]; 10% solution, all subjects",≤ 30 min
same,subjects with significant change in number of SSEs from baseline,"[8]; nine subjects, one week",Seven subjects reported significant change in the number of SSEs from baseline
same,adverse events,[8]; one subject of nine,slightly painful nipple erection
same,persistence of sensitivity,[8]; one subject with initial slightly painful nipple erection,approximately 8 hours
same,desire (modified FSFI desire domain),[8]; subjects reporting increase in number of SSEs,increased desire
